Measurements from ChEMBL document CHEMBL4627246, “Pyroglutamide-Based P2X7 Receptor Antagonists Targeting Inflammatory Bowel Disease” (J Med Chem, 2020).

Assays:
Type in all cases: cell-based
IGROV-1 = test: Cytotoxicity against human IGROV1 cells assessed as effect on cell growth at 10 uM incubated for 48 hrs by sulforhodamine B assay; conditions: igrov-1, 48 h
HT-29 = test: Cytotoxicity against human HT-29 cells assessed as effect on cell growth at 10 uM incubated for 48 hrs by sulforhodamine B assay; conditions: ht-29, 48 h
NCI/ADR-RES = test: Cytotoxicity against human NCI/ADR-RES cells assessed as effect on cell growth at 10 uM incubated for 48 hrs by sulforhodamine B assay
SNB-19 = test: Cytotoxicity against human SNB19 cells assessed as effect on cell growth at 10 uM incubated for 48 hrs by sulforhodamine B assay; conditions: snb-19, 48 h
SN12C = test: Cytotoxicity against human SN12C cells assessed as effect on cell growth at 10 uM incubated for 48 hrs by sulforhodamine B assay
PC-3 = test: Cytotoxicity against human PC3 cells assessed as effect on cell growth at 10 uM incubated for 48 hrs by sulforhodamine B assay; conditions: pc-3, 48 h
MDA-MB-468 = test: Cytotoxicity against human MDA-MB-468 cells assessed as effect on cell growth at 10 uM incubated for 48 hrs by sulforhodamine B assay; conditions: mda-mb-468, 48 h
RPMI-8226 = test: Cytotoxicity against human RPMI8226 cells assessed as effect on cell growth at 10 uM incubated for 48 hrs by sulforhodamine B assay; conditions: rpmi-8226, 48 h
HCT-15 = test: Cytotoxicity against human HCT15 cells assessed as effect on cell growth at 10 uM incubated for 48 hrs by sulforhodamine B assay; conditions: hct-15, 48 h
NCI-H23 = test: Cytotoxicity against human NCI-H23 cells assessed as effect on cell growth at 10 uM incubated for 48 hrs by sulforhodamine B assay; conditions: nci-h23, 48 h
SF-268 = test: Cytotoxicity against human SF268 cells assessed as effect on cell growth at 10 uM incubated for 48 hrs by sulforhodamine B assay; conditions: sf-268, 48 h
KM12 = test: Cytotoxicity against human KM12 cells assessed as effect on cell growth at 10 uM incubated for 48 hrs by sulforhodamine B assay; conditions: km12, 48 h
U-251 = test: Cytotoxicity against human U251 cells assessed as effect on cell growth at 10 uM incubated for 48 hrs by sulforhodamine B assay; conditions: u-251, 48 h
T47D = test: Cytotoxicity against human T47D cells assessed as effect on cell growth at 10 uM incubated for 48 hrs by sulforhodamine B assay
UACC-257 = test: Cytotoxicity against human UACC257 cells assessed as effect on cell growth at 10 uM incubated for 48 hrs by sulforhodamine B assay; conditions: uacc-257, 48 h
UO-31 = test: Cytotoxicity against human UO31 cells assessed as effect on cell growth at 10 uM incubated for 48 hrs by sulforhodamine B assay; conditions: uo-31, 48 h
LOX IMVI = test: Cytotoxicity against human LOXIMVI cells assessed as effect on cell growth at 10 uM incubated for 48 hrs by sulforhodamine B assay
BT-549 = test: Cytotoxicity against human BT549 cells assessed as effect on cell growth at 10 uM incubated for 48 hrs by sulforhodamine B assay; conditions: bt-549, 48 h
CAKI-1 = test: Growth inhibition of human Caki1 cells assessed as growth percentage at 10 uM incubated for 48 hrs by sulforhodamine B assay; conditions: caki-1, 48 h
SF-295 = test: Cytotoxicity against human SF295 cells assessed as effect on cell growth at 10 uM incubated for 48 hrs by sulforhodamine B assay; conditions: sf-295, 48 h

Measured: Activity

O=C(NCc1ccccc1)[C@@H]1CCC(=O)N1Cc1ccc(Cl)cc1Cl
Non-Toxic: all assays above

O=C1N[C@H](C(=O)NCc2ccc(Cl)cc2Cl)C/C1=N\O (stereo in doubt)
Non-Toxic: all assays above

CCCCCCN1C(=O)[C@@H]2CCC(=O)N2C1N(C)C (stereo not given in full)
Non-Toxic: all assays above

N#Cc1ccc(N2C(=O)CC[C@H]2C(=O)NCc2ccc(Cl)cc2Cl)cc1
Non-Toxic: all assays above

CN1C(=O)CC[C@H]1C(=O)NCc1cccc(C(F)(F)F)c1Cl [GSK1482160]
Non-Toxic: all assays above

COc1ccc(CN2C(=O)CC[C@H]2C(=O)NCCc2ccccc2)cc1
Non-Toxic: all assays above

O=C(NCC1CCCCC1)[C@@H]1CCC(=O)N1c1ccccc1
Non-Toxic: all assays above

CN(C)C(=O)[C@@H]1CCC(=O)N1
Non-Toxic: all assays above

O=C(NCc1ccc(Cl)cc1Cl)[C@@H]1CCC(=O)N1C(c1ccccc1)c1ccccc1
Non-Toxic: all assays above

O=C(NCc1ccccc1Cl)[C@@H]1CCC(=O)N1Cc1ccccc1
Non-Toxic: all assays above

O=C1N[C@H](C(=O)NCc2ccc(Cl)cc2Cl)C/C1=C\N1CCOCC1
Non-Toxic: all assays above

CN(C)/C=C1\C[C@H]2C(=O)N(Cc3ccccc3Cl)C(N(C)C)N2C1=O (stereo not given in full)
Non-Toxic: all assays above

COc1ccc(N2C(=O)CC[C@H]2C(=O)NCc2ccc(Cl)cc2Cl)cc1
Non-Toxic: all assays above

O=C(NCc1ccc(Cl)cc1Cl)[C@@H]1COC(=O)N1c1cccs1
Non-Toxic: all assays above
